Test results taken from US11236055B2 (Venenum Biodesign, LLC, priority 2016, dated 2022).

Assays:
Mouse STC-1 cells = experiment: STC-1 GLP-1 assay; assay type: cell-based; details: GLP-1 secretion, 2 h, coded A-C, read-out: Mouse STC-1 HTRF GLP-1 Activity (EC50)
How it was run: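 Cells were seeded two days before in charcoal-stripped FBS medium, then exposed 2 h at 37 °C to compounds (12-point half-log series) in HBSS with protease inhibitors, DPP-IV inhibitor and 0.1% fatty acid free BSA. Active GLP-1 in supernatants measured by HTRF; EC50 derived.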

[1] = Pharmacokinetic profile in mice; assay type: in vivo; details: mouse; fasted male Hilltop mice, 10 mg/kg oral gavage, plasma, mean of three mice
How it was run: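 Fasted 8-week-old male Hilltop mice received 10 mg/kg by oral gavage in 20% PEG400/80% 0.5% CMC + 0.25% Tween-80. Plasma was sampled at 0–4 h, with at most 3 draws per mouse, and measured by LC-MS/MS (0.1–500 ng/mL standards). Cmax and AUC were derived non-compartmentally; values are means of three mice.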

[2] = test system: GLP-1 levels in the blood of male C57BL/6NTac mice; experiment: In vivo mouse GLP-1 study, single oral dose; details: 10 mg/kg oral, 4 h post-dose, sitagliptin 3 mg/kg pre-dose
Procedure: In Vivo Mouse GLP-1 Study
12-14 week old male C57BL/6NTac (Taconic) mice were divided into experimental groups (n=6) by randomizing mice based on pre-fasting body weight and then were fasted overnight. On experiment day, all mice were dosed with 3 mg/kg sitagliptin via oral gavage exactly 1 hour before oral gavage dosing of vehicle (0.5% carboxymethylcellulose (medium viscosity)+0.25% Tween-80) or 10 mg/kg compound in vehicle. Four (4) hours following the administration of compound, blood was collected via cardiac puncture. For the GLP-1 assay, 200-250 μL of blood was placed in an EDTA K^2+ tube containing 5 μL of 40 mg/mL aprotinin (Sigma A1153) and 1 μL of 10 mM sitagliptin (Sigma S8576) and plasma was separated by centrifugation. Plasma samples were stored at −20° C. until analysis. The active form of GLP-1 [GLP-1 (7-36) amide] was analyzed using Meso Scale Discovery System according to the manufacturer's directions (item number K150HYC). Values of p<0.05 are considered statistically significant.
The active GLP-1 assay results from the mice in vivo study are shown in Table 36 and FIG. 1, expressed as fold change over vehicle.

Row | Compound | EC50 (Mouse STC-1 cells) [nM] | Cmax [1] [ng/mL] | Fold Increase (active GLP-1, fold change over vehicle) [2]
1 | CCc1cnccc1-c1cccc([C@H](C)N(CCCC(=O)NCCS(=O)(=O)O)S(=O)(=O)c2ccccc2C(F)(F)F)c1 [Compound 20BF, (S)-2-(4-(N-(1-(3-(3-ethylpyridin-4-yl)phenyl)ethyl)-2-(trifluoromethyl)phenylsulfonamido)butanamido)ethanesulfonic acid] | 100 to 999 | 0.8 | 2.9
2 | CCc1cnccc1-c1cccc([C@H](C)N(CCCC(=O)NCCS(=O)(=O)NCC(=O)O)S(=O)(=O)c2ccccc2C(F)(F)F)c1 [Compound 20BG] | 100 to 999 | 0.3 | 4.4
3 | Cc1cnccc1-c1cccc([C@H](C)N(CCCC(=O)NCCS(=O)(=O)NCCCC(=O)O)S(=O)(=O)c2ccccc2C(F)(F)F)c1 [Compound 20BK] | 1000 to 30000 | 0.4 | 1.3
4 | Cc1cnccc1-c1cccc([C@H](C)N(CCCCC(=O)NCCS(=O)(=O)NCC(=O)O)S(=O)(=O)c2ccccc2C(F)(F)F)c1 [Compound 20BL, (S) 2-(4-(N-(1-(3-(3-methylpyridin-4-yl)phenyl)ethyl)-2-(trifluoromethyl)phenylsulfonamidopentanamido)ethylsulfonamido)acetic acid] | 1000 to 30000 | 1.2 | 2.1
5 | CCc1cnccc1-c1cccc([C@H](C)N(CCCC(=O)NCCS(=O)(=O)O)S(=O)(=O)c2cccc(Cl)c2C)c1 [Compound 21AQ, (S)-2-(4-(3-chloro-N-(1-(3-(3-ethylpyridin-4-yl)phenyl)ethyl)-2-methylphenylsulfonamido)butanamido)ethanesulfonic acid] | 100 to 999 | 4.2 | 2.0
6 | CCc1cnccc1-c1cccc([C@H](C)N(CCCC(=O)NCCS(=O)(=O)NCC(=O)O)S(=O)(=O)c2cccc(Cl)c2C)c1 [Compound 21AT, (S) 2-(3-(4-(3-chloro-2-methyl-N-(1-(3-(3-ethylpyridin-4-yl)phenyl)ethyl)phenylsulfonamido)butanamido)ethylsulfonamido)acetic acid] | 100 to 999 | 1.6 | 4.2
